Measured values reported in the supplement of paper PMC12137928.
Structures can show the parent of a compound that is named as a salt.

Key:
HCT116 [1] = conditions: 72 h
How it was run: (§1)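 After seeding at 250 cells per well in 1536-well plates, HCT116 cells were given 5 h to attach. CellTiter-Glo luminescence, scaled to 0% for vehicle and -100% for positive control, was pattern-corrected. Fitting with a four-parameter Hill model produced IC50 and maximal efficacy.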

HCT116 [2] = test: efficacy (maximum % inhibition of viability vs DMSO); higher = more cytotoxic; conditions: 72 h
How it was run: as §1

Structure (SMILES)	IC50 cell viability (HCT116 [1]; ICRF193 0 nM) [µM]	IC50 cell viability (HCT116 [1]; ICRF193 200 nM) [µM]	efficacy (HCT116 [2]; ICRF193 0 nM) [%]	efficacy (HCT116 [2]; ICRF193 200 nM) [%]
CN1CCC2=C(C1)c1ccccc1Cc1ccccc12 [Setiptiline]	20.6	> 45.8	44.1	–
S=c1nc[nH]c2nc[nH]c12 [6-mercaptopurine]	2.59	3.26	91.6	83.2
O=S(=O)(O)c1ccc2c(/N=N/c3ccc(S(=O)(=O)O)c4ccccc34)c(O)c(S(=O)(=O)O)cc2c1 [Amaranth]	16.4	13	49	47.6
Cc1nnc2n1-c1sc(CCc3ccc(CC(C)C)cc3)cc1C(c1ccccc1Cl)=NC2C (stereo unspecified) [Israpafant]	16.4	23.1	98.7	114
CCCCC[C@H](O)C=C[C@H]1[C@@H](O)CC(=O)[C@@H]1CCCCCCC(=O)O	20.6	23.1	73.2	73.8
COc1cc2nccc(Oc3ccc(NC(=O)C4(C(=O)Nc5ccc(F)cc5)CC4)cc3)c2cc1OC [Cabozantinib]	20.6	16.4	58.4	69.8
NC(=O)c1cccc2cn(-c3ccc([C@@H]4CCCNC4)cc3)nc12 [MK-4827]	29.1	18.3	72.9	114
CN1CCN(CCCN2c3ccccc3Sc3ccc(S(=O)(=O)N(C)C)cc32)CC1 [Thioproperazine dimethanesulfonate]	> 45.8	20.6	–	46.2
CC(CN1c2ccccc2Sc2ccc(S(=O)(=O)N(C)C)cc21)N(C)C (stereo unspecified) [Fonazine]	22.4	35.5	56	70.3
NC(=O)C1(N2CCCCC2)CCN(CCCN2c3ccccc3CCc3ccccc32)CC1 [Carpipramine Dihydrochloride]	23.1	20.6	115	100
NC(=O)[C@@H]1CCCN1C(=O)[C@H](Cc1c[nH]cn1)NC(=O)[C@@H]1CCC(=O)N1 [PROTIRELIN]	29.1	25.9	69.8	64.8
N[C@@H](CCC(=O)N[C@@H](CS)C(=O)NCC(=O)O)C(=O)O [Glutathione]	> 45.8	3.18	–	79.8
C=C1CC[C@H](O)C/C1=C/C=C1\CCC[C@]2(C)[C@@H]([C@H](C)CCCC(C)C)CC[C@@H]12 [CHOLECALCIFEROL]	23.1	23.1	87.9	79.4
CCCCN(CCCC)CCC(O)c1cc2c(Cl)cc(Cl)cc2c2cc(C(F)(F)F)ccc12 (stereo unspecified) [Halofantrine]	23.1	20.6	66.9	87.4
C/C=C(/C(=C/C)c1ccc(O)cc1)c1ccc(O)cc1 [Dienestrol]	29.1	> 45.8	74.2	–
Cc1cc(-c2ccc(/N=N/c3ccc4c(S(=O)(=O)O)cc(S(=O)(=O)O)c(N)c4c3O)c(C)c2)ccc1/N=N/c1ccc2c(S(=O)(=O)O)cc(S(=O)(=O)O)c(N)c2c1O [EVANS BLUE]	18.3	18.3	95.6	87.8
COC(=O)C1=C(C)NC(C)=C(C(=O)OCC(C)C)C1c1ccccc1[N+](=O)[O-] (stereo unspecified) [Nisoldipine]	18.3	18.3	55.8	77.8
CCCCCCCC(=O)CC[C@@H]1[C@@H](C/C=C\CCCC(=O)OC(C)C)[C@@H](O)C[C@H]1O [Unoprostone isopropyl ester]	> 45.8	18.3	–	42.2
C=C(C)[C@H]1Cc2c(ccc3c2O[C@@H]2COc4cc(OC)c(OC)cc4[C@@H]2C3=O)O1 [Rotenone]	0.326	0.517	69.7	89.1
CC[C@]1(O)C[C@@H]2CN(CCc3c([nH]c4ccccc34)[C@@](C(=O)OC)(c3cc4c(cc3OC)N(C)[C@H]3[C@@](O)(C(N)=O)[C@H](O)[C@]5(CC)C=CCN6CC[C@]43[C@@H]65)C2)C1 [Vindesine sulfate salt]	0.058	0.058	75.5	69.2

Now from value to compound, other results behind:

IC50 cell viability (HCT116 [1]; ICRF193 0 nM) [µM]	IC50 cell viability (HCT116 [1]; ICRF193 200 nM) [µM]	Structure (SMILES)	efficacy (HCT116 [2]; ICRF193 0 nM) [%]	efficacy (HCT116 [2]; ICRF193 200 nM) [%]
18.3	18.3	O=C(OC[C@H]1O[C@@H](OC(=O)c2cc(O)c(O)c(OC(=O)c3cc(O)c(O)c(O)c3)c2)[C@H](OC(=O)c2cc(O)c(O)c(OC(=O)c3cc(O)c(O)c(O)c3)c2)[C@@H](OC(=O)c2cc(O)c(O)c(OC(=O)c3cc(O)c(O)c(O)c3)c2)[C@@H]1OC(=O)c1cc(O)c(O)c(OC(=O)c2cc(O)c(O)c(O)c2)c1)c1cc(O)c(O)c(OC(=O)c2cc(O)c(O)c(O)c2)c1 [Tannic acid]	108	102
0.00517	0.00517	CC(C)C[C@H](NC(=O)[C@H](Cc1ccccc1)NC(=O)c1cnccn1)B(O)O [Bortezomib]	93.7	97.3
29.1	29.1	Oc1c(I)cc(Cl)c2cccnc12 [Clioquinol]	99.1	98.1
1.83	1.64	COc1c(C)c2c(c(O)c1C/C=C(\C)CCC(=O)OCCN1CCOCC1)C(=O)OC2 [Mycophenolate mofetil]	74	74.4
18.3	20.6	COc1cc2c(cc1Cc1cccc(Cl)c1F)c(=O)c(C(=O)O)cn2[C@H](CO)C(C)C [Elvitegravir]	71.8	83
5.8	5.8	O=C(Nc1ccc(Cl)cc1)Nc1ccc(Cl)c(C(F)(F)F)c1 [Cloflucarban]	98.6	98.1
18.3	20.6	CCc1cc2c(cc1CC)CC(NC[C@H](O)c1ccc(O)c3[nH]c(=O)ccc13)C2 [Indacaterol (maleate)]	82.9	91.6
29.1	29.1	C=C1/C(=C\C=C2/CCC[C@]3(C)[C@@H]([C@H](C)/C=C/[C@H](C)C(C)C)CC[C@@H]23)C[C@@H](O)C[C@@H]1O [Doxercalciferol]	101	102
> 45.8	23.1	Nc1nc2ccc(OC(F)(F)F)cc2s1 [Riluzole]	–	46.2
32.6	29.1	CN(C/C=C/c1ccccc1)Cc1cccc2ccccc12 [Naftifine hydrochloride]	49.9	54
0.944	0.473	COc1c(OCCCN2CCOCC2)ccc2c1N=C(NC(=O)c1cnc(N)nc1)N1CCN=C21 [Copanlisib]	59.1	65.9
20.6	29.1	COC(=O)[C@H]1[C@H]2C[C@@H]3c4[nH]c5cc(OC)ccc5c4CCN3C[C@H]2C[C@@H](OC(=O)/C=C/c2ccc(O)c(OC)c2)[C@@H]1OC [Rescimetol]	101	106
29.1	29.1	O=[N+]([O-])c1ccc(Oc2ccc(N=C=S)cc2)cc1 [Nitroscanate]	82.7	85.5
> 45.8	29.1	CCCSS/C(CCO)=C(/C)N(C=O)Cc1cnc(C)nc1N [Prosultiamine]	–	43.7
11.6	8.2	CCCCCCCCCCCCCC[n+]1ccc(C)cc1 [Miripirium chloride]	104	70
29.1	16.4	CCOC(=O)Oc1c(OC)cc(C(=O)O[C@@H]2C[C@@H]3CN4CCc5c([nH]c6cc(OC)ccc56)[C@H]4C[C@@H]3[C@H](C(=O)OC)[C@H]2OC)cc1OC [Syrosingopine]	112	101
18.3	10.3	CN(C)c1ccc(C(=C2C=CC(=[N+](C)C)C=C2)c2c(O)c(S(=O)(=O)[O-])cc3cc(S(=O)(=O)O)ccc23)cc1 [Green S]	93.6	79.5
29.1	20.6	CC(C)(C)NC(=O)[C@@H]1C[C@@H]2CCCC[C@@H]2CN1C[C@@H](O)[C@H](Cc1ccccc1)NC(=O)[C@H](CC(N)=O)NC(=O)c1ccc2ccccc2n1 [Saquinavir]	84.1	108
18.3	29.1	Cc1cccc(C)c1OCC(=O)N[C@@H](Cc1ccccc1)[C@@H](O)C[C@H](Cc1ccccc1)NC(=O)[C@H](C(C)C)N1CCCNC1=O [Lopinavir]	50.2	73.7
23.1	20.6	CNC(=O)c1ccccc1Sc1ccc2c(/C=C/c3ccccn3)n[nH]c2c1 [Axitinib]	57.5	62.1
18.3	> 45.8	NC(=O)N1c2ccccc2CC(=O)c2ccccc21 [Oxcarbazepine]	52.3	–
